≈ marks a conversion by molar mass, not a printed value. Where two headings read alike, the source gives them in different places.
Tests used:
[1] = tested on: Escherichia coli BAA-2452; assay: Antibacterial MIC assay, serial dilution; type: cell-based; details: BAA2452, read-out: MIC Escherichia coli BAA-2452
[2] = tested on: MRSA NRS384 (USA300); assay: Multi-step resistance selection (serial passage); type: cell-based, Staphylococcus aureus; details: 15 days of serial passaging; resistance = 4-fold shift in MIC
Procedure: (§1) culture serv ed as an untreated control. The cultures were aerobically maintai ned at 37°C in shaking incubator. At specifi c sampling times, aliquots were collected, resuspended in phosphate-buffered saline (PBS) and distributed to three replicates on tryptic soy agar (TSA). After a 24-hour incubation period at 37°C, the number of colony- forming units (CFUs) was evaluated.
(§2) F i g u re S 1. Time kill results against MRSA USA 300 at 5X and 10X MIC. Compound P3 ( 38) is shown as red squares, compound P5( 40) is shown as green tri angles. Vancomycin (inverted purple triangle) is used as a b act ericidal control and linezolid (orange diamond) as a bacteriostatic control with DMSO (blue circles ) as a neg ative control.
Multi-step resistance selection
To assess the ability of M R S A NRS384 (USA300) to develop resistance to P -NM and P-AM, a multi- step serial passage experiment was used, as described previously.4-6 MRSA strain was serially passaged with sub inhibitory concentrations of compounds and control drugs (Rifampicin and linezolid) in 1 5passages over a period of two weeks. Resistance was defined as a 4 -fold shift […]
F i g u re S 2.Multi -step resistance selection for blastimidine P3 ( 38) and blastimidine P5 (40) , rifampicin, and linezolid evaluated against methicillin -resistant S. aureus (MRSA) NRS384 (USA300) for 15days. […]

[3] = tested on: Pseudomonas aeruginosa; assay: Antibacterial MIC assay, serial dilution; type: cell-based; details: for MIC: Pseudomonas aeruginosa, range from biological replicates, read-out: MIC P. aeruginosa
In short: (§3)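 Overnight cultures were subcultured in CAMHB to OD600 ~0.5, then diluted to OD600 0.004 and added to serially diluted compound (final 128–1 μg/mL). After incubation at 37 °C for 16–18 h, or 24 h for VRE, growth was read at OD600 and MIC taken as >90% inhibition.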

[4] = tested on: Acinetobacter baumannii ATCC 17978; assay: Antibacterial MIC assay, serial dilution; type: cell-based; details: ATCC17978, range from biological replicates
In short: as §3

[5] = tested on: Vancomycin resistant Enterococcus faecium NR-31909 (VRE); assay: Antibacterial MIC assay, serial dilution; type: cell-based; details: for Selectivity index (CC50/MIC) VRE NR-31909: CC50 Vero cells / MIC; for MIC: Enterococcus faecium, VRE, 24 h, read-out: MIC Vancomycin resistant Enterococcus faecium NR-31909 (VRE)
In short: as §3

[6] = tested on: Klebsiella pneumoniae ATCC 29665; assay: Antibacterial MIC assay, serial dilution; type: cell-based; details: for MIC: Klebsiella pneumoniae, ATCC29665, range from biological replicates, read-out: MIC K. pneumoniae ATCC-29665
In short: as §3

[7] = tested on: MRSA USA-300; type: cell-based, Staphylococcus aureus; details: for log reduction in time-kill assay: after 24 h
Procedure: MRSA USA-300 was grown overnight in cation- adjusted Muell er-Hinton broth (CAMHB), then subcultured into fresh CAMHB and incubated aerobi cally at 37°C until reaching the logarithmic phase, corresponding to an optical density (OD₆₀₀) of 0.2. The bacterial cultures were further diluted to adjust to a final concentration of 5 × 10⁵ CFU/mL in CAMHB. P3, P5, vancomycin and linezolid, were added at concentrations of 5× and 10× MIC. A DMSO-treated […]
as §1
as §2, with “control. […]” for “control.”

[8] = tested on: Methicillin resistant S. aureus (MRSA) USA300; assay: Antibacterial MIC assay, serial dilution; type: cell-based, Staphylococcus aureus; details: for Selectivity index (CC50/MIC) MRSA USA300: CC50 Vero cells / MIC; for MIC: Staphylococcus aureus, read-out: MIC Methicillin resistant S. aureus (MRSA) USA300

SMILES | MIC [1] | resistance development on serial passaging [2] | Selectivity index (CC50/MIC) P. aeruginosa ([3]; CC50 Vero cells / MIC) | MIC [3] | MIC [4] | Selectivity index (CC50/MIC) VRE NR-31909 [5] | MIC [5] | MIC [6] | bacteriostatic or bactericidal effect in time-kill assay ([7]; 5× MIC and 10× MIC) | log reduction in time-kill assay ([7]; 5× MIC) | log reduction in time-kill assay ([7]; 10× MIC) | Selectivity index (CC50/MIC) MRSA USA300 [8] | MIC [8] | Selectivity index (CC50/MIC) K. pneumoniae ([6]; CC50 Vero cells / MIC) | clearance in time-kill assay ([7]; 5× MIC and 10× MIC, within 24 h)
CNc1ccc(C(=O)Nc2ccn([C@H]3C=C[C@H](NC(=O)C[C@@H](N)CCN(C)C(=N)N)[C@@H](C(=O)NCCc4ccccc4)O3)c(=O)n2)cc1 [Blastimidine P3] | 64 µg/mL (≈ 97.2 µM) | did not produce a resistant phenotype | >3.0 | 64 to 128 µg/mL (≈ 97.2 to 194 µM) | > 128 µg/mL | >2.0 | 128 µg/mL (≈ 194 µM) | > 128 µg/mL | bacteriostatic activity | 2.5 log | 2.7 log | >8.0 | 32 µg/mL (≈ 48.6 µM) | – | –
CN(CC[C@H](N)CC(=O)N[C@H]1C=C[C@H](n2ccc(NC(=O)c3ccc(NC(=O)[C@@](C)(N)CO)cc3)nc2=O)O[C@@H]1C(=O)NCCc1ccccc1)C(=N)N [Blastimidine P5] | 128 µg/mL (≈ 172 µM) | did not produce a resistant phenotype | – | > 128 µg/mL | > 128 µg/mL | >11 | 16 to 32 µg/mL (≈ 21.5 to 42.9 µM) | 64 to 128 µg/mL (≈ 85.8 to 172 µM) | bactericidal activity | – | – | >16 | 16 µg/mL (≈ 21.5 µM) | >3.0 | complete clearance

Reference: paper PMC12856912, “Structure-Guided Semisynthesis of Blasticidin S–Amicetin Chimeras as Selective Ribosome Inhibitors” (Journal of the American Chemical Society, 2026)
